# According to the supplement of paper PMC10307832:
# What was measured:
# Test in all cases: relative viability (nuclei count vs DMSO), 5 days (fraction); higher = more cells survive
# [1] = tested on: PC-3 [JPC-3]
# Outline: (§1)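 Values are medians from duplicate plates. Each reflects relative viability, defined as the nuclei count of treated wells over that of vehicle wells. Lung cancer cell lines in 1536-well plates were pin-tool dosed one day after seeding with one drug alone or with a fixed anchor-drug dose plus five library-drug doses (not always all listed) in √10 steps, then fixed, stained and imaged at 4× after 5 days.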
# [2] = tested on: HCC-827
# Outline: as §1
# [3] = tested on: LU99A
# Outline: as §1
# [4] = tested on: NCI-H2126
# Outline: as §1
# [5] = tested on: BEN
# Outline: as §1
# [6] = tested on: HCC-366
# Outline: as §1
# [7] = tested on: HCC-15
# Outline: as §1
# [8] = tested on: NCI-H1993
# Outline: as §1
# [9] = tested on: LCLC-97TM1
# Outline: as §1
# [10] = tested on: NCI-H2087
# Outline: as §1
# [11] = tested on: NCI-H727
# Outline: as §1
# [12] = tested on: NCI-H2170
# Outline: as §1
# [13] = tested on: LXF-289
# Outline: as §1
# [14] = tested on: HARA
# Outline: as §1
# [15] = tested on: LC-2-ad
# Outline: as §1
# [16] = tested on: CAL-12T
# Outline: as §1
# [17] = tested on: PC-14
# Outline: as §1
# [18] = tested on: HOP-62
# Outline: as §1
# [19] = tested on: HCC-44
# Outline: as §1
compound,measurement,setting,value
O=c1[nH]c2ccccc2n1C1CCN(CCCC(c2ccc(F)cc2)c2ccc(F)cc2)CC1 [Pimozide] + NC(=O)Nc1cc(-c2cccc(F)c2)sc1C(=O)N[C@H]1CCCNC1 [AZD7762] (partner 0.2 µM),relative viability,[1]; first compound 0.253 µM,0.719
same,relative viability,[1]; first compound 0.8 µM,0.72
same,relative viability,[1]; first compound 2.53 µM,0.832
same,relative viability,[1]; first compound 8 µM,0.751
same,relative viability,[2]; first compound 0.253 µM,0.2
same,relative viability,[2]; first compound 0.8 µM,0.211
same,relative viability,[2]; first compound 2.53 µM,0.236
same,relative viability,[2]; first compound 8 µM,0.28
same,relative viability,[3]; first compound 0.08 µM,0.399
same,relative viability,[3]; first compound 0.8 µM,0.333
same,relative viability,[3]; first compound 2.53 µM,0.31
same,relative viability,[3]; first compound 8 µM,0.398
same,relative viability,[4]; first compound 0.08 µM,1.02
same,relative viability,[4]; first compound 0.253 µM,1.06
same,relative viability,[4]; first compound 0.8 µM,1.01
same,relative viability,[4]; first compound 2.53 µM,1.02
same,relative viability,[4]; first compound 8 µM,1
same,relative viability,[5]; first compound 0.08 µM,0.762
same,relative viability,[5]; first compound 0.253 µM,0.753
same,relative viability,[5]; first compound 0.8 µM,0.618
same,relative viability,[5]; first compound 2.53 µM,0.713
same,relative viability,[5]; first compound 8 µM,0.886
same,relative viability,[6]; first compound 0.08 µM,0.263
same,relative viability,[6]; first compound 0.253 µM,0.258
same,relative viability,[6]; first compound 0.8 µM,0.211
same,relative viability,[6]; first compound 2.53 µM,0.246
same,relative viability,[6]; first compound 8 µM,0.253
same,relative viability,[7]; first compound 0.08 µM,1.36
same,relative viability,[7]; first compound 0.253 µM,0.545
same,relative viability,[7]; first compound 2.53 µM,1.2
same,relative viability,[7]; first compound 8 µM,1.16
same,relative viability,[8]; first compound 0.08 µM,0.701
same,relative viability,[8]; first compound 0.253 µM,0.752
same,relative viability,[8]; first compound 0.8 µM,0.544
same,relative viability,[8]; first compound 2.53 µM,0.675
same,relative viability,[8]; first compound 8 µM,0.729
same,relative viability,[9]; first compound 0.08 µM,0.363
same,relative viability,[9]; first compound 0.253 µM,0.23
same,relative viability,[9]; first compound 0.8 µM,0.171
same,relative viability,[9]; first compound 2.53 µM,0.246
same,relative viability,[9]; first compound 8 µM,0.376
same,relative viability,[10]; first compound 0.08 µM,1.27
same,relative viability,[10]; first compound 0.253 µM,1.31
same,relative viability,[10]; first compound 2.53 µM,1.22
same,relative viability,[10]; first compound 8 µM,1.25
same,relative viability,[11]; first compound 0.08 µM,0.496
same,relative viability,[11]; first compound 0.253 µM,0.581
same,relative viability,[11]; first compound 0.8 µM,0.596
same,relative viability,[11]; first compound 2.53 µM,0.613
same,relative viability,[11]; first compound 8 µM,0.525
same,relative viability,[12]; first compound 0.08 µM,0.875
same,relative viability,[12]; first compound 0.253 µM,0.828
same,relative viability,[12]; first compound 0.8 µM,0.85
same,relative viability,[12]; first compound 2.53 µM,0.915
same,relative viability,[12]; first compound 8 µM,0.802
same,relative viability,[13]; first compound 0.08 µM,1.07
same,relative viability,[13]; first compound 0.253 µM,1.1
same,relative viability,[13]; first compound 0.8 µM,1.08
same,relative viability,[13]; first compound 2.53 µM,1.13
same,relative viability,[13]; first compound 8 µM,0.962
same,relative viability,[14]; first compound 0.08 µM,0.21
same,relative viability,[14]; first compound 0.253 µM,0.48
same,relative viability,[14]; first compound 0.8 µM,0.318
same,relative viability,[14]; first compound 2.53 µM,0.197
same,relative viability,[14]; first compound 8 µM,0.37
same,relative viability,[15]; first compound 0.08 µM,0.78
same,relative viability,[15]; first compound 0.253 µM,0.794
same,relative viability,[15]; first compound 0.8 µM,0.736
same,relative viability,[15]; first compound 2.53 µM,0.812
same,relative viability,[15]; first compound 8 µM,0.798
same,relative viability,[16]; first compound 0.08 µM,0.64
same,relative viability,[16]; first compound 0.253 µM,0.587
same,relative viability,[16]; first compound 0.8 µM,0.539
same,relative viability,[16]; first compound 2.53 µM,0.511
same,relative viability,[16]; first compound 8 µM,0.587
same,relative viability,[17]; first compound 0.253 µM,0.348
same,relative viability,[17]; first compound 0.8 µM,0.271
same,relative viability,[17]; first compound 2.53 µM,0.328
same,relative viability,[17]; first compound 8 µM,0.402
same,relative viability,[18]; first compound 0.08 µM,0.634
same,relative viability,[18]; first compound 0.253 µM,0.477
same,relative viability,[18]; first compound 2.53 µM,0.661
same,relative viability,[18]; first compound 8 µM,0.517
same,relative viability,[19]; first compound 0.08 µM,1.01
same,relative viability,[19]; first compound 0.253 µM,0.992
same,relative viability,[19]; first compound 0.8 µM,0.849
same,relative viability,[19]; first compound 2.53 µM,0.98
same,relative viability,[19]; first compound 8 µM,0.971
